Assays:
AEP = molecular target: T1, AEP (Homo sapiens, UniProt Q99538); experiment: IC50 assay with purified recombinant AEP; format: biochemical; details: purified active AEP; read-out: IC50 toward AEP
T1 construct: tested with purified active AEP, IC50 values for the top 8 candidates were found
T1 sequence (Q99538 18-323 limits assumed): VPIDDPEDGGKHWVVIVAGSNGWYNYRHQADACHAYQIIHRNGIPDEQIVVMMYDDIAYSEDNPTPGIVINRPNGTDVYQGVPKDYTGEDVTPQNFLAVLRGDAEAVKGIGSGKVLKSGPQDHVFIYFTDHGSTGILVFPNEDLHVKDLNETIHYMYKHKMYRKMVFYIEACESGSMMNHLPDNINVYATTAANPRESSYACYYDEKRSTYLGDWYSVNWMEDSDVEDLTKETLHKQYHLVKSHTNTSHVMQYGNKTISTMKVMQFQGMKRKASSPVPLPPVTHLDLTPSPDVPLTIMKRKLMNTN
Description: (§1) Purified recombinant enzyme was incubated with various concentrations of inhibitor in appropriate assay buffers in the presence of increasing concentrations of inhibitor. The formation of fluorescent product was monitored in duplicate reactions and the data was fit to appropriate equations to calculate the IC50 values.
(§2) To identify small-molecule inhibitors of AEP, a high-throughput screen was designed in conjunction with the Emory Chemical Biology Discovery Center. The screen incorporated mouse kidney lysates to assay a 54,384 compound library. […] Additional structural analysis and grouping allowed the compounds to be sorted into 8 distinct backbone families. […] The specificity of the compounds was also determined using four major cysteine proteases (FIG. 2).
Various concentrations of the appropriate compound were incubated with AEP reaction buffer (50 mM Sodium Citrate pH 5.5, 0.1% CHAPS, 60 mM Na2HPO4, 1 mM EDTA, final pH 6.0) and peptide substrate, 10 μM Cbz-Ala-Ala-Asn-AMC (Bachem). The reaction was initiated upon addition of 50 nM AEP and fluorescent product formation was monitored over 15 min. […] Data were analyzed with GraFit version 5.0.11 software package.

CYP2D6 = CYP2D6 (Homo sapiens, UniProt P10635); experiment: CYP inhibition screening, CYP2D6; format: in vitro ADME
Cathepsin-S = Cathepsin-S (Homo sapiens, UniProt P25774); experiment: Specificity assay against Cathepsin-S; format: biochemical
Description: as §1, §2

CYP1A2 = molecular target: T2, CYP1A2 (Homo sapiens, UniProt P05177); experiment: CYP inhibition screening, CYP1A2; format: in vitro ADME
T2 sequence (P05177 1-516): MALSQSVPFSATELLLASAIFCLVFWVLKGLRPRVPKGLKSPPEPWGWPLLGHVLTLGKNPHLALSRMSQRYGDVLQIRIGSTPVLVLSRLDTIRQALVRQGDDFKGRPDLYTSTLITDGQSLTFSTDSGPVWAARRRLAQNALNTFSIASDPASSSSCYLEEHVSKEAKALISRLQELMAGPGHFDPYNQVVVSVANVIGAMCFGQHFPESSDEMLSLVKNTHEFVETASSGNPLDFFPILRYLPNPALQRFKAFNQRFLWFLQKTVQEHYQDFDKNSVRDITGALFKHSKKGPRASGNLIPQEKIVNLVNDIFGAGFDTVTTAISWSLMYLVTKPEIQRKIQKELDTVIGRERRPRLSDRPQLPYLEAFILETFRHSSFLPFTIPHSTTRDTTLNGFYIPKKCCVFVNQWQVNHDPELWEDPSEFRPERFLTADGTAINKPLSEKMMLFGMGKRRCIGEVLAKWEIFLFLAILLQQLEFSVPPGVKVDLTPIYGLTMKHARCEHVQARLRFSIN

CYP3A = experiment: CYP inhibition screening, CYP3A-Testosterone; format: in vitro ADME
Caspase-8 = Caspase-8 (Homo sapiens, UniProt Q14790); experiment: Specificity assay against Caspase-8; format: biochemical
Description: as §1, §2

[1] = tested on: amyloid precursor protein (APP) cleavage; experiment: APP cleavage in OGD-treated primary cortical neurons; format: cell-based; details: 0.1 μM compound
Description: A. AEP activity, measured in primary neuronal cultures with 5 μM Cbz-Ala-Ala-Asn-AMC (x-axis denotes neurons were treated with 0.1 μM or 1.0 μM specified compound). B. Caspase activity, measured in primary neuronal cultures with 5 μM Ac-Asp-Glu-Val-Asp-AMC. C. Cathepsin activity, measured in primary neuronal cultures with 5 μM D-Val-Leu-Lys-AMC. D. Inhibition of APP cleavage. Lysates of primary cortical neurons pre-incubated with compounds for 30 min, underwent OGD for 4 hrs, were reperfused for 18 hrs (normoxia neurons remained at normoxic conditions). E. APP can be cleaved in a dose-dependent manner. Lysates of primary cortical neurons pre-incubated with compounds for 30 min, underwent OGD for 4 hrs, were reperfused for 18 hrs (normoxia neurons remained at normoxic conditions).
Depriving cells of oxygen and glucose is a cellular model that is employed to trigger acidosis in cultured cells. The efficacy of the compounds in a cellular model of oxygen-glucose deprivation (OGD) was determined in an effort to mimic the effects of stroke in primary cultured neurons. As a result of depriving neurons of oxygen and glucose-containing medium, AEP activity was doubled (FIG. 7A, ‘DMSO-Norm’ compared to ‘DMSO-OGD’), while Caspase-3 and Cathepsin activities remained relatively unchanged. […] Cleavage of APP is observed in response to only DMSO treatment (FIG. 7D, lane 2), and it appears that upon the treatment of 1 μM of compounds 10, 11, and 12, and just 0.1 μM of compound s31, 38 and 64, the cleavage was blocked, presumably due to AEP inhibition.

CYP2C19 = CYP2C19 (Homo sapiens, UniProt P33261); experiment: CYP inhibition screening, CYP2C19; format: in vitro ADME
CYP2C9 = CYP2C9 (Homo sapiens, UniProt P11712); experiment: CYP inhibition screening, CYP2C9; format: in vitro ADME
Cathepsin-L = Cathepsin-L (Homo sapiens, UniProt P07711); experiment: Specificity assay against Cathepsin-L; format: biochemical
CYP3A4 = CYP3A4 (Homo sapiens, UniProt P08684); experiment: CYP inhibition screening, CYP3A4-Midazolam; format: in vitro ADME
Caco-2 monolayer = Caco-2 monolayer permeability screen; details: Table 1
Description: To explore the in vitro ADME profiles of the compounds, additional tests were conducted.

Caspase-3 = molecular target: T3, Caspase-3 (Homo sapiens, UniProt P42574); experiment: Specificity assay against Caspase-3; format: biochemical
T3 sequence (P42574 29-175 limits assumed): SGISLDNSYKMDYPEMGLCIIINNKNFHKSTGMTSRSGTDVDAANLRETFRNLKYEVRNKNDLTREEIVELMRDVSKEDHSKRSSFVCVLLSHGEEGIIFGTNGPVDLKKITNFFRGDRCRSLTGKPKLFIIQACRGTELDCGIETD
T3 sequence (P42574 176-277 limits assumed): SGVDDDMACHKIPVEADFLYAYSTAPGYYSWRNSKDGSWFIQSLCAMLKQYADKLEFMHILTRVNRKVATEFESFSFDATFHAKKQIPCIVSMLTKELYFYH
Description: as §1, §2

CYP3A4, sequence (P08684 whole entry): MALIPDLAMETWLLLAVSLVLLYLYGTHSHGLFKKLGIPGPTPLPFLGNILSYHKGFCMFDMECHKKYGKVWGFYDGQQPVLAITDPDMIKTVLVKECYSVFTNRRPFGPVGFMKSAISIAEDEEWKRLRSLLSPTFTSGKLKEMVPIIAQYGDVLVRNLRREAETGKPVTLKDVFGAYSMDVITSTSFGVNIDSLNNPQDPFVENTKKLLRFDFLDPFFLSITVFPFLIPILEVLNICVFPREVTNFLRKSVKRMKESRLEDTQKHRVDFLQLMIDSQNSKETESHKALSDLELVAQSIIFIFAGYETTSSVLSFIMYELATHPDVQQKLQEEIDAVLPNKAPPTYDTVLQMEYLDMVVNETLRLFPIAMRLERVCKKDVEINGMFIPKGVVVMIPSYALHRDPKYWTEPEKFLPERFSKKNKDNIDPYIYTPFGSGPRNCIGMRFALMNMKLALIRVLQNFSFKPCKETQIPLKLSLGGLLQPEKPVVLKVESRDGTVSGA
CYP2C19, sequence (P33261 whole entry): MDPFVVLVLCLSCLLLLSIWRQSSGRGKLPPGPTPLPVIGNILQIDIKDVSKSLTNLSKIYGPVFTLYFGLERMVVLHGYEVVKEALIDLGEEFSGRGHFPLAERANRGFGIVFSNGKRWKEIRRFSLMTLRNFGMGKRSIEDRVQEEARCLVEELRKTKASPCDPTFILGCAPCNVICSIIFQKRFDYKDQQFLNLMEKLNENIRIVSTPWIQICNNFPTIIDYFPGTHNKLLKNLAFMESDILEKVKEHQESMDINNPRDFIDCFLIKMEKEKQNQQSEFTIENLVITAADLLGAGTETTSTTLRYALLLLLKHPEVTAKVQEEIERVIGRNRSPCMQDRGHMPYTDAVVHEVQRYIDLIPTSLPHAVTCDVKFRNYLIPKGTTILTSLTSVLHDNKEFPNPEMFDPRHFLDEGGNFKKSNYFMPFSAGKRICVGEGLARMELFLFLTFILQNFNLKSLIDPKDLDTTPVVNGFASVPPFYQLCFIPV
CYP2D6, sequence (P10635 whole entry): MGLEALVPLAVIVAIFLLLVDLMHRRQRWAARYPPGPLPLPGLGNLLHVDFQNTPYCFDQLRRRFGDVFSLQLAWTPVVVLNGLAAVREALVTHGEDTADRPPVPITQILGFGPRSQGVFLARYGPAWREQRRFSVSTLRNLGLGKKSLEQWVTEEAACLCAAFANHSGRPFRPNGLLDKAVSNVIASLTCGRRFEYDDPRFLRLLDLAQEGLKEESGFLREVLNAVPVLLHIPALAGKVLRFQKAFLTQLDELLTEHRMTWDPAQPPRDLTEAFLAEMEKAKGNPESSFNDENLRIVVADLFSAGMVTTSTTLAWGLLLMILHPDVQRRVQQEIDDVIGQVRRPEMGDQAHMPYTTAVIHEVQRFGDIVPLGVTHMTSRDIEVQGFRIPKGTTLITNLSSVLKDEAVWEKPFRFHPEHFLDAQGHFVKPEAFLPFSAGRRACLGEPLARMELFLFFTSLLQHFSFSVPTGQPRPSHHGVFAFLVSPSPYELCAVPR
CYP2C9, sequence (P11712 whole entry): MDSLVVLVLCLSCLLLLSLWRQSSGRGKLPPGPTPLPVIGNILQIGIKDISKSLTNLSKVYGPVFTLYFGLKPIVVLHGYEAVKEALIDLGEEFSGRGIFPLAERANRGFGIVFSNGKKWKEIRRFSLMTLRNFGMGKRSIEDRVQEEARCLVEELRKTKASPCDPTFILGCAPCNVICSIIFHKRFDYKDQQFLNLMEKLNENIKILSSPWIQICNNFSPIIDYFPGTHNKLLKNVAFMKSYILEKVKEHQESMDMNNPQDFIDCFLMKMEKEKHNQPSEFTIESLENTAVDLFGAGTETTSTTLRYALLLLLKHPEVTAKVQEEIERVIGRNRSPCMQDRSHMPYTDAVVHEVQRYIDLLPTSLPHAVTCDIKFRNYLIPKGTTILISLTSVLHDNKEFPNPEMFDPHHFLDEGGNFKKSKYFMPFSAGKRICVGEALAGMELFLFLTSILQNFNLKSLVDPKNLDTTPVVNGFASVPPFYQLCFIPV
Cathepsin-L, sequence (P07711 114-333, species assumed): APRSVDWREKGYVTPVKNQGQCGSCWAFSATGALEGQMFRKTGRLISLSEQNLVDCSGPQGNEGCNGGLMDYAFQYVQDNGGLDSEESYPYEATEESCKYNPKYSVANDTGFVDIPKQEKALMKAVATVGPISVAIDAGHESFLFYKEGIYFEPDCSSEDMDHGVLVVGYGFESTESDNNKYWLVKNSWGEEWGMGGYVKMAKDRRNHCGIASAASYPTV
Cathepsin-S, sequence (P25774 115-331, species assumed): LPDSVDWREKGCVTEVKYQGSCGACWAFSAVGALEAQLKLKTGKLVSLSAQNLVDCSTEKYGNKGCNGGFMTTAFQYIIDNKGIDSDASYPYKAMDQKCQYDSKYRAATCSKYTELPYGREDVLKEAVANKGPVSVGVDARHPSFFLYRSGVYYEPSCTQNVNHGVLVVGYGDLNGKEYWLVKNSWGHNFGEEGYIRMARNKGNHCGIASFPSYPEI
Caspase-8, sequence (Q14790 217-374 limits assumed, species assumed): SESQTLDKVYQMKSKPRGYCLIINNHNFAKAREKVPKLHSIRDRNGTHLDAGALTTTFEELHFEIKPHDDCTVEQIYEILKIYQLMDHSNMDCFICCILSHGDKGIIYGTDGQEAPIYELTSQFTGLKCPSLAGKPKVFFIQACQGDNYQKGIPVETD
Caspase-8, sequence (Q14790 385-479 limits assumed, species assumed): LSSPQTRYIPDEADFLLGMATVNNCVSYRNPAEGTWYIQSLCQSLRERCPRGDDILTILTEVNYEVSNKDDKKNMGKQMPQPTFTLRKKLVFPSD

Structure (SMILES): CCN(CC)c1ccc(CN2CCc3nc(C)[nH]c(=O)c3C2)c(OC)c1 [Compound 64]
- IC50 (AEP): 2370 nM
- CYP2D6 inhibition (CYP2D6; 3 μM): 34.6%
- CYP2D6 inhibition (CYP2D6; 10 μM): 58.3%
- selectivity for AEP over Cathepsin-S (Cathepsin-S): over 40 fold
- CYP1A2 inhibition (CYP1A2; 3 μM): 73.7%
- CYP1A2 inhibition (CYP1A2; 10 μM): 22.2%
- CYP3A-Testosterone inhibition (CYP3A; 3 μM): 1.5%
- CYP3A-Testosterone inhibition (CYP3A; 10 μM): −0.1%
- selectivity for AEP over Caspase-8 (Caspase-8): over 40 fold
- APP cleavage after OGD [1]: blocked
- CYP2C19 inhibition (CYP2C19; 3 μM): 31.6%
- CYP2C19 inhibition (CYP2C19; 10 μM): 20.4%
- CYP2C9 inhibition (CYP2C9; 3 μM): 4.6%
- CYP2C9 inhibition (CYP2C9; 10 μM): 7.9%
- selectivity for AEP over Cathepsin-L (Cathepsin-L): over 40 fold
- CYP3A4-Midazolam inhibition (CYP3A4; 3 μM): 0.6%
- CYP3A4-Midazolam inhibition (CYP3A4; 10 μM): 10.1%
- A −>B Papp (Caco-2 monolayer): <LLOQ
- B −> A Papp (Caco-2 monolayer): <LLOQ
- selectivity for AEP over Caspase-3 (Caspase-3): about 6 fold

From patent US10759803B2, “Asparagine endopeptidase (AEP) inhibitors for managing cancer and compositions related thereto” (priority 2014, dated 2020)
